Assay results as given in PubChem BioAssay AID212 (DTP/NCI, 2004).
Where “and” joins values, the source holds several entries; their conditions need not be identical. Identical values can stand only once. Records with an inconclusive call do not appear.

System: BDF1 mice, colon carcinoma 38 sc, T/C %
Experiment: NCI In Vivo Anticancer Drug Screen. Data for tumor model Colon Carcinoma 38 (subcutaneous) in B6D2F1 (BDF1) mice
How it was run: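 Ratio of survival or tumor size, compound-treated animals relative to vehicle controls, in tumor-bearing mice.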

[1] = endpoint: median tumor weight (est.), dose: 25.0 mg/kg/injection, schedule: Q07DX002 (ip), vehicle: saline, higher = larger tumour
[2] = endpoint: median tumor weight (est.), dose: 100.0 mg/kg/injection, schedule: Q07DX002 (ip), vehicle: saline, higher = larger tumour
[3] = endpoint: median tumor weight (est.), dose: 12.5 mg/kg/injection, schedule: Q07DX002 (ip), vehicle: saline with Tween-80, higher = larger tumour
[4] = endpoint: median tumor weight (est.), dose: 50.0 mg/kg/injection, schedule: Q07DX002 (ip), vehicle: saline with Tween-80, higher = larger tumour
[5] = endpoint: median tumor weight (est.), dose: 25.0 mg/kg/injection, schedule: Q07DX002 (ip), vehicle: saline with Tween-80, higher = larger tumour
[6] = endpoint: median tumor weight (est.), dose: 100.0 mg/kg/injection, schedule: Q07DX002 (ip), vehicle: saline with Tween-80, higher = larger tumour
[7] = endpoint: median tumor weight (est.), dose: 100.0 mg/kg/injection, schedule: Q07DX002 (ip), vehicle: Klucel (hydroxypropylcellulose) (HPC), higher = larger tumour
[8] = endpoint: median tumor weight (est.), dose: 25.0 mg/kg/injection, schedule: Q07DX002 (ip), vehicle: Klucel (hydroxypropylcellulose) (HPC), higher = larger tumour

CS(=O)(=O)OCCCNCCCOS(C)(=O)=O
T/C (endpoint: median tumor weight (est.), dose: 9.3 mg/kg/injection, schedule: Q07DX003 (ip), vehicle: saline, higher = larger tumour): 43 % of control
T/C (endpoint: median tumor weight (est.), dose: 18.75 mg/kg/injection, schedule: Q07DX003 (ip), vehicle: saline, higher = larger tumour): 73 % of control
T/C (endpoint: median tumor weight (est.), dose: 37.5 mg/kg/injection, schedule: Q07DX003 (ip), vehicle: saline, higher = larger tumour): 58 % of control
T/C (endpoint: median tumor weight (est.), dose: 75.0 mg/kg/injection, schedule: Q07DX003 (ip), vehicle: saline, higher = larger tumour): 36 % of control

COc1ccc(/C=C/C(=O)c2cc(C(=O)O)c(OC)cc2OC)cc1OC
T/C (endpoint: median tumor weight (est.), dose: 12.5 mg/kg/injection, schedule: Q07DX002 (ip), vehicle: saline, higher = larger tumour): 94 % of control and 103 % of control
T/C [1]: 88 % of control and 94 % of control
T/C (endpoint: median tumor weight (est.), dose: 50.0 mg/kg/injection, schedule: Q07DX002 (ip), vehicle: saline, higher = larger tumour): 114 % of control and 124 % of control
T/C [2]: 88 % of control and 96 % of control
T/C (endpoint: median tumor weight (est.), dose: 400.0 mg/kg/injection, schedule: Q07DX002 (ip), vehicle: saline, higher = larger tumour): 93 % of control and 103 % of control

C1CN2CN3CCN(CN1C3)C2
T/C [1]: 111 % of control
T/C [2]: 166 % of control
T/C (endpoint: median tumor weight (est.), dose: 200.0 mg/kg/injection, schedule: Q07DX002 (ip), vehicle: saline, higher = larger tumour): 115 % of control

CCN(CC)CCNc1ccc(CO)c2sc3ccccc3c(=O)c12
T/C (endpoint: median tumor weight (est.), dose: 6.25 mg/kg/injection, schedule: Q07DX003 (ip), vehicle: clinical formulation, higher = larger tumour): 120 % of control
T/C (endpoint: median tumor weight (est.), dose: 6.25 mg/kg/injection, schedule: Q07DX003 (ip), vehicle: water, higher = larger tumour): 90 % of control
T/C (endpoint: median tumor weight (est.), dose: 12.5 mg/kg/injection, schedule: Q07DX003 (ip), vehicle: clinical formulation, higher = larger tumour): 116 % of control
T/C (endpoint: median tumor weight (est.), dose: 12.5 mg/kg/injection, schedule: Q07DX003 (ip), vehicle: water, higher = larger tumour): 103 % of control
T/C (endpoint: median tumor weight (est.), dose: 25.0 mg/kg/injection, schedule: Q07DX003 (ip), vehicle: clinical formulation, higher = larger tumour): 77 % of control
T/C (endpoint: median tumor weight (est.), dose: 25.0 mg/kg/injection, schedule: Q07DX003 (ip), vehicle: water, higher = larger tumour): 114 % of control
T/C (endpoint: median tumor weight (est.), dose: 50.0 mg/kg/injection, schedule: Q07DX003 (ip), vehicle: clinical formulation, higher = larger tumour): 63 % of control
T/C (endpoint: median tumor weight (est.), dose: 50.0 mg/kg/injection, schedule: Q07DX003 (ip), vehicle: water, higher = larger tumour): 30 % of control
T/C (endpoint: median tumor weight (est.), dose: 100.0 mg/kg/injection, schedule: Q07DX003 (ip), vehicle: clinical formulation, higher = larger tumour): 14 % of control
T/C (endpoint: median tumor weight (est.), dose: 100.0 mg/kg/injection, schedule: Q07DX003 (ip), vehicle: water, higher = larger tumour): 11 % of control

CN=C(N)N/N=C(\c1ccccc1)c1ccc(Br)cc1
T/C (endpoint: median tumor weight (est.), dose: 3.0 mg/kg/injection, schedule: Q07DX002 (ip), vehicle: saline with Tween-80, higher = larger tumour): 152 % of control
T/C (endpoint: median tumor weight (est.), dose: 6.25 mg/kg/injection, schedule: Q07DX002 (ip), vehicle: saline with Tween-80, higher = larger tumour): 169 % of control
T/C [3]: 156 % of control
T/C [4]: 96 % of control

Nc1ncnc2c(C3OC(CO)C(O)C3O)[nH]nc12 (centres undefined)
T/C (endpoint: median tumor weight (est.), dose: 15.0 mg/kg/injection, schedule: Q07DX002 (ip), vehicle: suspension in saline, higher = larger tumour): 193 % of control
T/C (endpoint: median tumor weight (est.), dose: 30.0 mg/kg/injection, schedule: Q07DX002 (ip), vehicle: suspension in saline, higher = larger tumour): 201 % of control
T/C (endpoint: median tumor weight (est.), dose: 60.0 mg/kg/injection, schedule: Q07DX002 (ip), vehicle: suspension in saline, higher = larger tumour): 168 % of control
T/C (endpoint: median tumor weight (est.), dose: 120.0 mg/kg/injection, schedule: Q07DX002 (ip), vehicle: suspension in saline, higher = larger tumour): 150 % of control

O=C(O)CC(NC(=O)CP(=O)(O)O)C(=O)O.[NH-]C1CCCCC1[NH-].[Pt+2] (centres undefined)
T/C (endpoint: median tumor weight (est.), dose: 1.56 mg/kg/injection, schedule: Q07DX002 (ip), vehicle: dextrose, higher = larger tumour): 103 % of control
T/C (endpoint: median tumor weight (est.), dose: 3.12 mg/kg/injection, schedule: Q07DX002 (ip), vehicle: dextrose, higher = larger tumour): 77 % of control and 87 % of control
T/C (endpoint: median tumor weight (est.), dose: 6.25 mg/kg/injection, schedule: Q07DX002 (ip), vehicle: dextrose, higher = larger tumour): 85 % of control and 90 % of control
T/C (endpoint: median tumor weight (est.), dose: 12.5 mg/kg/injection, schedule: Q07DX002 (ip), vehicle: dextrose, higher = larger tumour): 64 % of control and 65 % of control
T/C (endpoint: median tumor weight (est.), dose: 25.0 mg/kg/injection, schedule: Q07DX002 (ip), vehicle: dextrose, higher = larger tumour): 44 % of control and 54 % of control
T/C (endpoint: median tumor weight (est.), dose: 50.0 mg/kg/injection, schedule: Q07DX002 (ip), vehicle: dextrose, higher = larger tumour): 14 % of control

Clc1ccc(CN2COc3c(ccc4cccnc34)C2)cc1Cl
T/C [3]: 180 % of control
T/C [5]: 171 % of control
T/C [4]: 110 % of control
T/C [6]: 206 % of control

CS(=O)(=O)[O-].CS(=O)(=O)[O-].NC1CCCCC1N.[Pt+4] (centres undefined)
T/C (endpoint: median tumor weight (est.), dose: 0.31 mg/kg/injection, schedule: Q07DX002 (ip), vehicle: dextrose, higher = larger tumour): 71 % of control
T/C (endpoint: median tumor weight (est.), dose: 0.62 mg/kg/injection, schedule: Q07DX002 (ip), vehicle: dextrose, higher = larger tumour): 58 % of control and 82 % of control
T/C (endpoint: median tumor weight (est.), dose: 1.25 mg/kg/injection, schedule: Q07DX002 (ip), vehicle: dextrose, higher = larger tumour): 54 % of control and 56 % of control
T/C (endpoint: median tumor weight (est.), dose: 2.5 mg/kg/injection, schedule: Q07DX002 (ip), vehicle: dextrose, higher = larger tumour): 35 % of control and 45 % of control
T/C (endpoint: median tumor weight (est.), dose: 5.0 mg/kg/injection, schedule: Q07DX002 (ip), vehicle: dextrose, higher = larger tumour): 39 % of control
T/C (endpoint: median tumor weight (est.), dose: 10.0 mg/kg/injection, schedule: Q07DX002 (ip), vehicle: dextrose, higher = larger tumour): 19 % of control

Cc1cc(NC(=S)SCc2ccc3c(c2)OCO3)ccc1Cl
T/C [7]: 111 % of control
T/C (endpoint: median tumor weight (est.), dose: 200.0 mg/kg/injection, schedule: Q07DX002 (ip), vehicle: Klucel (hydroxypropylcellulose) (HPC), higher = larger tumour): 82 % of control

Nc1ncnc2c1ncn2C1OC(COS(N)(=O)=O)C(O)C1O (centres undefined)
T/C (endpoint: median survival time, dose: 0.25 mg/kg/injection, schedule: Q02DX004 (sc), vehicle: saline, higher = longer survival): 100 % of control
T/C (endpoint: median survival time, dose: 0.5 mg/kg/injection, schedule: Q02DX004 (sc), vehicle: saline, higher = longer survival): 100 % of control

CCCCCc1cc(/C=C2/N=C(c3ccc[nH]3)C=C2OC)[nH]c1C
T/C (endpoint: median tumor weight (est.), dose: 0.5 mg/kg/injection, schedule: Q07DX002 (ip), vehicle: saline with Tween-80, higher = larger tumour): 94 % of control
T/C (endpoint: median tumor weight (est.), dose: 2.0 mg/kg/injection, schedule: Q07DX002 (ip), vehicle: saline with Tween-80, higher = larger tumour): 163 % of control
T/C (endpoint: median tumor weight (est.), dose: 4.0 mg/kg/injection, schedule: Q07DX002 (ip), vehicle: saline with Tween-80, higher = larger tumour): 106 % of control
T/C (endpoint: median tumor weight (est.), dose: 8.0 mg/kg/injection, schedule: Q07DX002 (ip), vehicle: saline with Tween-80, higher = larger tumour): 120 % of control
T/C (endpoint: median tumor weight (est.), dose: 16.0 mg/kg/injection, schedule: Q07DX002 (ip), vehicle: saline with Tween-80, higher = larger tumour): 108 % of control

O=NN(CCCl)C(=O)Oc1cc(Cl)c(Cl)cc1Cl
T/C [8]: 117 % of control
T/C (endpoint: median tumor weight (est.), dose: 50.0 mg/kg/injection, schedule: Q07DX002 (ip), vehicle: Klucel (hydroxypropylcellulose) (HPC), higher = larger tumour): 63 % of control

CC1(C)CC(=O)C(CSC(=O)c2ccccc2)C(=O)C1
T/C (endpoint: median tumor weight (est.), dose: 12.5 mg/kg/injection, schedule: Q07DX002 (ip), vehicle: Klucel (hydroxypropylcellulose) (HPC), higher = larger tumour): 120 % of control and 104 % of control
T/C [8]: 113 % of control and 104 % of control
T/C [7]: 88 % of control

N=C(N)Sc1ccccn1
T/C (endpoint: median tumor weight (est.), dose: 100.0 mg/kg/injection, schedule: Q07DX003 (ip), vehicle: saline, higher = larger tumour): 94 % of control
T/C (endpoint: median tumor weight (est.), dose: 200.0 mg/kg/injection, schedule: Q07DX003 (ip), vehicle: saline, higher = larger tumour): 81 % of control
T/C (endpoint: median tumor weight (est.), dose: 400.0 mg/kg/injection, schedule: Q07DX003 (ip), vehicle: saline, higher = larger tumour): 88 % of control and 108 % of control

Nc1nc2c(C(=O)N3CCCC3)nnn2c2ccccc12
T/C [3]: 98 % of control
T/C [5]: 105 % of control
T/C [4]: 100 % of control
T/C [6]: 116 % of control

COc1cc2cc(c1Cl)N(C)C(=O)CC(OC(=O)CC(C)C)C1(C)OC1C(C)C1CC(O)(NC(=O)O1)C(OC)/C=C/C=C(C)C2 (centres undefined)
T/C (endpoint: median tumor weight (est.), dose: 6.2 micrograms/kg/injection, schedule: Q07DX003 (ip), vehicle: saline + alcohol, higher = larger tumour): 121 % of control
T/C (endpoint: median tumor weight (est.), dose: 25.0 micrograms/kg/injection, schedule: Q07DX003 (ip), vehicle: saline + alcohol, higher = larger tumour): 75 % of control
